“And” between values parts separate entries of the source, which are not always exact repeats. Equal values may be shown once. Read-outs that look alike come from different tables or passages of the source. Marks after values point to notes of the source that are not given here.
Key:
[1] = Pharmacokinetics of Formulation D11 given CIV for 14 days in monkeys; format: in vivo, Cynomolgus monkeys; conditions: for Css / T1/2z / Vd / AUC / clearance: 14-day CIV, Mean (SD); for Css: average between 30 h and 14 days; for T1/2z: end of treatment; for Vd / AUC / clearance: iv
Experimental: Cynomolgus monkeys received continuous IV infusion over 14 days of Compound 1 at 5 mg/kg/day, 15 mg/kg/day, or 30 mg/kg/day. The drug was infused intravenously (24 hours/day) into the femoral vein at a dose rate of 2 ml/kg/hour for 14 consecutive days. Blood samples were removed from each monkey on Days 1, 2, 6, 10, and 15 of the treatment period. Monkeys were bled by venipuncture and samples were collected into tubes containing K2EDTA. On Day 1, samples were collected at 2, 6, and 12 hours after initiation of treatment. Additional samples were collected at 30 hours after the start of infusion (Day 2). On Days 6 and 10, samples were collected at approximately 6 hours after the bag changes. At the end of the 14 days of infusion, on Day 15, samples were collected at 1 hour prior to cessation of dose administration, and at 5 min, 30 min, 1 h, 2 h, 4 h, 8 h, and 24 h following cessation of dose administration.

[2] = In vivo toxicity of Compound 1 in rats; conditions: rat, single bolus intravenous administration, healthy rats
Description: The toxicity was due to the vehicle and was attributed to smaller size of infusion vessels, and concurrent catheter tract infection.

[3] = tested on: human glioma (U-87MG) tumor xenograft; assay: Human U-87 MG glioblastoma mice model, antitumor efficacy; format: in vivo; conditions: SC 30 mg/kg q1d×5 over 2 weeks
Experimental: Tumor growth was followed every other day by measuring tumor length (L) and width (W) using a calliper. Measurements were converted to tumor volumes (TV; mm^3) using the standard formula, TV=(L×W^2)/2. Tumor volume at day n was expressed as relative tumor volume (RTV) according to the following formula RTV=TVn/TV0, where TVn is the tumor volume at day n and TV0 is the tumor volume at day 0. The percentage of tumor growth inhibition (% TGI) was determined by 1−(mean RTV of treated group/mean RTV of control group)×100. […] Statistical analysis was calculated by the two-tailed unpaired t test using the Prism software. […]
The human U-87 MG (ATCC® no. HTB-14™) glioblastoma antitumor efficacy study was performed at INSERM U318 (Grenoble, France). […] On each dosing day, Compound 1 stock solutions (24 and 40 mg/mL in bulk Formulation B11) were diluted with sterile 5% dextrose in water (D5W) to prepare a dosing solution of 6 mg/mL of Compound 1 in ready-to-use Formulation D11 (5% ethanol, 5% PEG400, 15% polysorbate 80, and 75% D5W).
For the human glioblastoma antitumor efficacy study, female athymic (nu/nu) nude mice (6-7 weeks of age) were inoculated SC with 5×10^6 U-87MG cells (day 0). […] Tumor growth inhibition (TGI) was calculated on day 34 post tumor cell inoculation, at which time some animals from the vehicle control group had to be sacrificed due to tumor burden.

[4] = Population pharmacokinetic analysis (NONMEM), monkey; format: in vivo; conditions: cynomolgus, plasma, iv, Monkey (CIV); for half-life: monkey; for Vd: read-out: Vss
Description: Plasma concentrations of Compound 1 were obtained from mice, rats, and monkeys following intravenous injection or continuous infusion. Compound 1 pharmacokinetic parameters in mice, rats, and monkeys were estimated using population pharmacokinetic analysis, a function of the software program NONMEM™ (version 5). Typical population pharmacokinetic parameters for Compound 1 in humans were extrapolated from allometric equations that were derived from pharmacokinetic parameters estimated in the three animal species. […] A two-compartment model with a first-order elimination from the central compartment adequately described Compound 1 plasma concentration-time profiles following intravenous bolus injection (30 mg/kg) in mice and rats, 7-day continuous infusion in rats (50 to 170 mg/kg/day), and 14-day continuous infusion in monkeys (5 to 30 mg/kg/day).

[5] = cynomolgus monkey, plasma, intravenous, CIV, 30 mg/kg/day
[6] = cynomolgus monkey, plasma, 5 mg/kg/day
[7] = cynomolgus monkey, plasma, 15 mg/kg/day

## CC(C)=CCC/C(C)=C/CC/C(C)=C/CN1C(=O)c2cccc(O)c2Nc2c(O)cc(O)cc21 [Compound 1, 10-farnesyl-4,6,8-trihydroxy-dibenzodiazepin-11-one]
[1]; 15 mg/kg/day versus 5 mg/kg/day
  AUC increase between groups: 3.4 fold
[1]; 30 mg/kg/day versus 15 mg/kg/day
  AUC increase between groups: 4.7 fold
[1]; 5 mg/kg/day
  Css: 358^b (85)^ ng/mL
  T1/2z: 12 (3) h
[1]; 15 mg/kg/day
  Css: 1,173 (340) ng/mL
  T1/2z: 8.3 (2.2) h
[1]; 30 mg/kg/day
  Css: 6,283 (3,650) ng/mL
  T1/2z: 8.1 (1.0) h
[1]; [5]
  concentration at 1 day: 2810 ng/mL and ~6.1 µM
  concentration at 6 day: 4350 ng/mL and ~9.4 µM
  concentration at 10 day: ~15 µM and 6860 ng/mL
  concentration at 15 day: 8560 ng/mL and ~18.5 µM
[1]; cynomolgus monkey, plasma, 5 mg/kg/day, 5 mg/kg/day, read-out: Vss
  Vd: 7.1 L/kg
[1]; cynomolgus monkey, plasma, 5 mg/kg/day, 5 mg/kg/day, read-out: Vz
  Vd: 10 L/kg
[1]; cynomolgus monkey, plasma, 15 mg/kg/day, 15 mg/kg/day, read-out: Vss
  Vd: 3.6 L/kg
[1]; [6]
  AUC: 119 µg·h/mL
  clearance: 10.2 mL/min/kg
[1]; [7]
  AUC: 400 µg·h/mL
  clearance: 9.33 mL/min/kg
[1]; cynomolgus monkey, plasma, 30 mg/kg/day
  AUC: 1870 µg·h/mL
[1]; cynomolgus, cynomolgus monkey, plasma, 15 mg/kg/day, 15 mg/kg/day, read-out: Vz
  Vd: 6.8 L/kg
[1]; cynomolgus, cynomolgus monkey, plasma, 30 mg/kg/day, 30 mg/kg/day, read-out: Vss
  Vd: 10.7 L/kg
[1]; cynomolgus, cynomolgus monkey, plasma, 30 mg/kg/day, 30 mg/kg/day, read-out: Vz
  Vd: 3.2 L/kg
[1]; cynomolgus, cynomolgus monkey, plasma, 30 mg/kg/day
  clearance: 4.5 mL/min/kg
[2]
  MTD: 85 mg/kg
[3]
  tolerability of dose regimen: well tolerated
[4]; population PK, read-out: t1/2, α (converted)
  half-life: 0.308 h
[4]; population PK, read-out: t1/2, β (converted)
  half-life: 8.05 h
[4]; WT 3.8 Kg
  clearance: 28 mL/min
  Vd: 2.36 L
[4]; population PK
  clearance: 7.35 mL/min/kg
  Vd: 0.622 L/kg

From patent publication US20060276436A1, “Farnesyl dibenzodiazepinone formulation” (Ecopia BioSciences, Inc., priority 2005, published 2006)
